# Measured values reported in patent US20160159814A1, “GLYCINE TRANSPORTER INHIBITOR” (TAISHO PHARMACEUTICAL CO., LTD., priority 2013, published 2016).
# Molecular target: T1, human type 1 glycine transporter (GlyT1) (Homo sapiens, UniProt P48067)
# T1 construct: T98G cells (glioma cells) expressing human type 1 glycine transporter (GlyT1) were used; endogenous in cells; host or cells: T98G cells (human glioma cells)
# T1 sequence (P48067 1-706): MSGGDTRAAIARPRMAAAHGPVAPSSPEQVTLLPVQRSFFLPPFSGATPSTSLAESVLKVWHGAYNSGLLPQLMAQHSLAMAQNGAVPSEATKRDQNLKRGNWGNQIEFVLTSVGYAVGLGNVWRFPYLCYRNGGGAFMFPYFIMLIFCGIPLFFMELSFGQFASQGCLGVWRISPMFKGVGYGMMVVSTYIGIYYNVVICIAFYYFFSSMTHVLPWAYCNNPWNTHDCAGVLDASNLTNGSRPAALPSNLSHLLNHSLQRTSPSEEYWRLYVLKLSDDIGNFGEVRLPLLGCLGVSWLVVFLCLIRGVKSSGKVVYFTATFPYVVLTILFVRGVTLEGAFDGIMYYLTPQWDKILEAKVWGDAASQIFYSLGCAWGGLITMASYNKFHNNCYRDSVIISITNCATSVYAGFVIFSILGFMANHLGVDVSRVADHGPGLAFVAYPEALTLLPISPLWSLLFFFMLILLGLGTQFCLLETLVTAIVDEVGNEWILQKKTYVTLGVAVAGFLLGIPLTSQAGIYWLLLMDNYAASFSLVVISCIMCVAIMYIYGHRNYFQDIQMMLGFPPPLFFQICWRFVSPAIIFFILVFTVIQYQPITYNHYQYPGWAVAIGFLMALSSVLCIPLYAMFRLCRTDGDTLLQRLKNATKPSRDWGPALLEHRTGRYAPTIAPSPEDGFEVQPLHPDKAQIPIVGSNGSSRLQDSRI
# Experiment: Glycine uptake inhibition experiment ([3H] glycine uptake in T98G cells expressing GlyT1)
# Format: cell-based
# Conditions: not given
# How it was run: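 T98G glioma cells expressing human GlyT1 were pretreated 10 min with compound in HEPES buffer pH 7.4 (0.2% BSA), then incubated with compound plus 250 nM final [3H]glycine for 15 min at room temperature. Intracellular radioactivity was counted after NaOH lysis; 10 μM ALX5407 defined non-specific uptake. IC50 came from 10^−9–10^−5 M curves.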
row,SMILES,IC50 [nM]
1,"COc1ccc(CN2C(=O)C(F)(F)c3c(C(O)C(F)F)cccc32)cn1 (single isomer, unassigned) [Compound 255, 4-(2,2-difluoro-1-hydroxyethyl)-3,3-difluoro-1-[(6-methoxypyridin-3-yl)methyl)-1,3-dihydro-2H-indol-2-one]",69
2,"C[C@H](O)c1cccc2c1C(F)(F)C(=O)N2Cc1ccc(Cl)nc1C#N [Compound 248, 6-chloro-3-({3,3-difluoro-4-[(1S)-1-hydroxyethyl]-2-oxo-2,3-dihydro-1H-indol-1-yl}methyl)pyridine-2-carbonitrile]",1200
3,"CCOc1ccc(CN2C(=O)C(F)(F)c3c([C@H](C)O)cccc32)cn1 [Compound 241, 1-[(6-ethoxypyridin-3-yl)methyl]-3,3-difluoro-4-[(1S)-1-hydroxyethyl]-1,3-dihydro-2H-indol-2-one]",66
4,"COc1nc(CN2C(=O)C(F)(F)c3c([C@H](C)O)cccc32)ccc1F [Compound 246, 3,3-difluoro-1-[(5-fluoro-6-methoxypyridin-2-yl)methyl]-4-[(1S)-1-hydroxyethyl]-1,3-dihydro-2H-indol-2-one]",55
5,"O=C1N(Cc2ccc(F)cn2)c2cccc(C(O)C(F)F)c2C1(F)F (single isomer, unassigned) [Compound 168, 4-(2,2-difluoro-1-hydroxyethyl)-3,3-difluoro-1-[(5-fluoropyridin-2-yl)methyl]-1,3-dihydro-2H-indol-2-one]",280
6,"COc1nc(C(F)(F)F)ccc1CN1C(=O)C(F)(F)c2c([C@H](C)O)cccc21 [Compound 243, 3,3-difluoro-4-[(1S)-1-hydroxyethyl]-1-({2-methoxy-6-(trifluoromethyl)pyridin-3-yl]methyl}-1,3-dihydro-2H-indol-2-one]",57
7,"CC(O)c1c(F)ccc2c1C(F)(F)C(=O)N2Cc1ccnc(C#N)c1 (single isomer, unassigned) [Compound 182, 4-{[3,3,5-trifluoro-4-(1-hydroxyethyl)-2-oxo-2,3-dihydro-1H-indol-1-yl]methyl}pyridine-2-carbonitrile]",1700
8,"C[C@H](O)c1cccc2c1C(F)(F)C(=O)N2Cc1ccc(Cl)c(C#N)n1 [Compound 202, 3-chloro-6-({3,3-difluoro-4-[(1S)-1-hydroxyethyl]-2-oxo-2,3-dihydro-1H-indol-1-yl)methyl)pyridine-2-carbonitrile]",6.9
9,"N#Cc1cc(CN2C(=O)C(F)(F)c3c(C(O)C(F)F)cccc32)c(Cl)cn1 (single isomer, unassigned) [Compound 220]",170
10,"[2H]C([2H])(c1cccc(Cl)n1)N1C(=O)C(F)(F)c2c([C@H](C)O)cccc21 [Compound 205, 1-[(6-chloropyridin-2-yl)(2H2)methyl]-3,3-difluoro-4-[(1S)-1-hydroxyethyl]-1,3-dihydro-2H-indol-2-one]",5.6
11,"C[C@H](O)c1cccc2c1C(F)(F)C(=O)N2Cc1ncc(Cl)cc1Cl [Compound 225, 1-[(3,5-dichloropyridin-2-yl)methyl]-3,3-difluoro-4-[(1S)-1-hydroxyethyl]-1,3-dihydro-2H-indol-2-one]",57
12,"O=C1N(Cc2ccnc(OC(F)F)c2)c2cccc(C(O)C(F)F)c2C1(F)F (single isomer, unassigned) [Compound 218, 4-(2,2-difluoro-1-hydroxyethyl)-1-{[2-(difluoromethoxy)pyridin-4-yl]methyl}-3,3-difluoro-1,3-dihydro-2H-indol-2-one]",10

# Same assay, conditions: glycine uptake inhibition
row,SMILES,IC50 [nM]
1,"C[C@H](O)c1cccc2c1C(F)(F)C(=O)N2Cc1ccc(F)cn1 [Compound 114, 3,3-difluoro-1-[(5-fluoropyridin-2-yl)methyl]-4-[(1S)-1-hydroxyethyl]-1,3-dihydro-2H-indol-2-one]",61
2,"COc1cncc(CN2C(=O)C(F)(F)c3c([C@H](C)O)cccc32)c1 [Compound 71, 3,3-difluoro-4-[(1S)-1-hydroxyethyl]-1-[(5-methoxypyridin-3-yl)methyl]-1,3-dihydro-2H-indol-2-one]",160
3,"C[C@H](O)c1c(Cl)ccc2c1C(F)(F)C(=O)N2Cc1ccnc(C#N)c1 [Compound 107, 4-({5-chloro-3,3-difluoro-4-[(1S)-1-hydroxyethyl]-2-oxo-2,3-dihydro-1H-indol-1-yl}methyl)pyridine-2-carbonitrile]",150
4,"CCC(O)c1cccc2c1C(F)(F)C(=O)N2Cc1cccc(Cl)n1 (stereo not drawn) [Compound 15, 1-[(6-chloropyridin-2-yl)methyl]-3,3-difluoro-4-(1-hydroxypropyl)-1,3-dihydro-2H-indol-2-one]",180
5,"CC(O)c1cccc2c1C(F)(F)C(=O)N2Cc1ccnc(Cl)c1 (single isomer, unassigned) [Compound 33, 1-[(2-chloropyridin-4-yl)methyl]-3,3-difluoro-4-(1-hydroxyethyl)-1,3-dihydro-2H-indol-2-one]",18
6,"C[C@H](O)c1cccc2c1C(F)(F)C(=O)N2Cc1cc(Cl)ccn1 [Compound 65, 1-[(4-chloropyridin-2-yl)methyl]-3,3-difluoro-4-[(1S)-1-hydroxyethyl]-1,3-dihydro-2H-indol-2-one]",18
7,"C[C@@H](O)c1cccc2c1C(F)(F)C(=O)N2Cc1ccnc(C#N)c1 [Compound 38, 4-({3,3-difluoro-4-[(1R)-1-hydroxyethyl]-2-oxo-2,3-dihydro-1H-indol-1-yl}methyl)pyridine-2-carbonitrile]",5300
8,"C[C@H](O)c1cccc2c1C(F)(F)C(=O)N2Cc1cncc(C(F)F)c1 [Compound 116, 1-{[5-(difluoromethyl)pyridin-3-yl]methyl}-3,3-difluoro-4-[(1S)-1-hydroxyethyl]-1,3-dihydro-2H-indol-2-one]",110
9,"Cc1nc(CN2C(=O)C(F)(F)c3c([C@H](C)O)cccc32)oc1C [Compound 91, 1-[(4,5-dimethyl-1,3-oxazol-2-yl)methyl]-3,3-difluoro-4-[(1S)-1-hydroxyethyl]-1,3-dihydro-2H-indol-2-one]",130
10,"O=C1N(Cc2cncc(Cl)c2)c2ccc(F)c(C(O)C(F)(F)F)c2C1(F)F (single isomer, unassigned) [Compound 50, 1-[(5-chloropyridin-3-yl)methyl]-3,3,5-trifluoro-4-(2,2,2-trifluoro-1-hydroxyethyl)-1,3-dihydro-2H-indol-2-one]",170
11,"N#Cc1cccc(CN2C(=O)C(F)(F)c3c(C(O)C(F)(F)F)cccc32)n1 (single isomer, unassigned) [Compound 19, 6-{[3,3-difluoro-2-oxo-4-(2,2,2-trifluoro-1-hydroxyethyl)-2,3-dihydro-1H-indol-1-yl]methyl}pyridine-2-carbonitrile]",60
12,"C[C@H](O)c1cccc2c1C(F)(F)C(=O)N2Cc1nc2cc(F)ccc2c(=O)n1C [Compound 132, 2-({3,3-difluoro-4-[(1S)-1-hydroxyethyl]-2-oxo-2,3-dihydro-1H-indol-1-yl}methyl)-7-fluoro-3-methylquinazolin-4(3H)-one]",18
13,"O=C1N(Cc2cc(Cl)ccn2)c2cccc(C(O)C(F)F)c2C1(F)F (single isomer, unassigned) [Compound 146, 1-[(4-chloropyridin-2-yl)methyl]-4-(2,2-difluoro-1-hydroxyethyl)-3,3-difluoro-1,3-dihydro-2H-indol-2-one]",61
14,"C[C@H](O)c1cccc2c1C(F)(F)C(=O)N2Cc1cc(F)ccn1 [Compound 97, 3,3-difluoro-1-[(4-fluoropyridin-2-yl)methyl]-4-[(1S)-1-hydroxyethyl]-1,3-dihydro-2H-indol-2-one]",91
15,"C[C@H](O)c1cccc2c1C(F)(F)C(=O)N2Cc1nc2ncccc2c(=O)n1C [Compound 108, 2-({3,3-difluoro-4-[(1S)-1-hydroxyethyl]-2-oxo-2,3-dihydro-1H-indol-1-yl}methyl)-3-methylpyrido[2,3-d]pyrimidin-4(3H)-one]",240

# Same assay, conditions: table section whose head prints (μm)
row,SMILES,IC50 [nM]
1,"O=C1N(Cc2cncc(OC(F)F)c2)c2cccc(C(O)C(F)F)c2C1(F)F (single isomer, unassigned) [Compound 258, 4-(2,2-difluoro-1-hydroxyethyl)-1-{[5-(difluoromethoxy)pyridin-3-yl]methyl}-3,3-difluoro-1,3-dihydro-2H-indol-2-one]",120
2,"COc1nc(CN2C(=O)C(F)(F)c3c(C(O)C(F)F)cccc32)ccc1F (single isomer, unassigned) [Compound 265, 4-(2,2-difluoro-1-hydroxyethyl)-3,3-difluoro-1-[(5-fluoro-6-methoxypyridin-2-yl)methyl]-1,3-dihydro-2H-indol-2-one]",930
3,"N#Cc1nc(CN2C(=O)C(F)(F)c3c(C(O)C(F)F)cccc32)ccc1Cl (single isomer, unassigned) [Compound 271, 3-chloro-6-{[4-(2,2-difluoro-1-hydroxyethyl)-3,3-difluoro-2-oxo-2,3-dihydro-1H-indol-1-yl]methyl}pyridine-2-carbonitrile]",5.5
